EC50 data for 15 compounds are collected here from patent US20240246964A1 (Arbutus Biopharma Corporation, priority 2021, published 2024).

The term EC50 denotes the midpoint of the concentration-response curve. Low readings indicate greater potency, high ones weaker potency.

Each structure is given as a SMILES string.

The target in the experiment is human PD-L1 (Homo sapiens (Human), UniProt Q9NZQ7). The experiment in a line: T cell activation luciferase reporter cell culture system (T Cell Activation Assay). The class given is cell-based. The settings on record: luciferase reporter assay; PD-L1 aAPC/CHO-K1 cells with PD-1 effector Jurkat T cells. Background: Reporter assays use an easily measured gene product as a stand-in for the process of interest.
Chain of human PD-L1 (Q9NZQ7 19-290): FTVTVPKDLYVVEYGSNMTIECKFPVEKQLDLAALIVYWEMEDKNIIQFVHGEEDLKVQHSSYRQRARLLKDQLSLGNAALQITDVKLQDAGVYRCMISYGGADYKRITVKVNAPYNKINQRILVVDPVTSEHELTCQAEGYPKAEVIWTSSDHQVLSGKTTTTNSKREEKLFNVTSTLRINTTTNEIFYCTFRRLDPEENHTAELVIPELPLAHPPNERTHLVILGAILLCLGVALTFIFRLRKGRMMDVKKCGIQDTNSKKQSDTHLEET
Take `COc1nc(-c2cccc(-c3ccnc(-c4ccc(CNC5CCN(C)C(=O)C5)c(OC(F)F)c4)c3Cl)c2Cl)ccc1CNC1CCN(C)C(=O)C1` (racemic) [Example 619, 4-(((6-(2-Chloro-3-(3-chloro-2-(3-(difluoromethoxy)-4-(((1-methyl-2-oxopiperidin-4-yl)amino)methyl)phenyl)pyridin-4-yl)phenyl)-2-methoxypyridin-3-yl)methyl)amino)-1-methylpiperidin-2-one]: the EC50 amounted to 66.9 nM.
To `COc1cc(-c2nccc(-c3cccc(-c4ccn5c(=O)c(CNC[C@@H]6CCC(=O)N6)cnc5c4)c3Cl)c2Cl)ccc1CNC[C@@H]1CCC(=O)N1` [Cmpd 1, 8-(2-chloro-3-(3-chloro-2-(3-methoxy-4-(((((S)-5-oxopyrrolidin-2-yl)methyl)amino)methyl)phenyl)pyridin-4-yl)phenyl)-3-(((((S)-5-oxopyrrolidin-2-yl)methyl)amino)methyl)-4H-pyrido[1,2-a]pyrimidin-4-one] belongs 300 nM; to `COc1nc(-c2cccc(-c3ccnc(-c4ccn5c(=O)c(CNC[C@@H]6CCC(=O)N6)cnc5c4)c3Cl)c2Cl)ccc1CNC[C@@H]1CCC(=O)N1` [Cmpd 2, 8-(3-chloro-4-(2-chloro-3-(6-methoxy-5-(((((S)-5-oxopyrrolidin-2-yl)methyl)amino)methyl)pyridin-2-yl)phenyl)pyridin-2-yl)-3-(((((S)-5-oxopyrrolidin-2-yl)methyl)amino)methyl)-4H-pyrido[1,2-a]pyrimidin-4-one], 87.6 nM; to `COc1nc(-c2cccc(-c3ccnc(-c4ccc5c(c4)N(C)CCNC5)c3Cl)c2Cl)ccc1CNC[C@@H]1CCC(=O)N1` [Cmpd 3, (S)-5-((((6-(2-chloro-3-(3-chloro-2-(1-methyl-2,3,4,5-tetrahydro-1H-benzo[e][1,4]diazepin-8-yl)pyridin-4-yl)phenyl)-2-methoxypyridin-3-yl)methyl)amino)methyl)pyrrolidin-2-one], 42.9 nM.
With `COc1nc(-c2cccc(-c3ccnc(-c4ccc5c(c4)N(C)CCNC5)c3Cl)c2Cl)ccc1CNCC(C)NC(C)=O` (stereo not drawn) [Cmpd 5, N-(1-(((6-(2-chloro-3-(3-chloro-2-(1-methyl-2,3,4,5-tetrahydro-1H-benzo[e][1,4]diazepin-8-yl)pyridin-4-yl)phenyl)-2-methoxypyridin-3-yl)methyl)amino)propan-2-yl)acetamide] the figure was 172 nM.
With `COc1cc(-c2nccc(-c3cccc(-c4ccc(CNC[C@@H]5CCC(=O)N5)c(OC)n4)c3Cl)c2Cl)cc2c1CN(C[C@@H]1CCC(=O)N1)CC2` [Cmpd 6, (S)-5-((((6-(2-chloro-3-(3-chloro-2-(8-methoxy-2-(((S)-5-oxopyrrolidin-2-yl)methyl)-1,2,3,4-tetrahydroisoquinolin-6-yl)pyridin-4-yl)phenyl)-2-methoxypyridin-3-yl)methyl)amino)methyl)pyrrolidin-2-one] the figure was 22.3 nM; with `COc1cc(-c2nccc(-c3cccc(-c4ccc(CNC[C@@H]5CCC(=O)N5)c(OC)n4)c3Cl)c2Cl)cc2c1CNCC2` [Cmpd 7, (S)-5-((((6-(2-chloro-3-(3-chloro-2-(8-methoxy-1,2,3,4-tetrahydroisoquinolin-6-yl)pyridin-4-yl)phenyl)-2-methoxypyridin-3-yl)methyl)amino)methyl)pyrrolidin-2-one], 53.5 nM.
On to `COc1cc(-c2nccc(-c3cccc(-c4ccc(CNC[C@@H]5CCC(=O)N5)c(OC)n4)c3Cl)c2Cl)ccc1CNC[C@@H]1CCC(=O)N1` [Cmpd 8, (S)-5-((((6-(2-chloro-3-(3-chloro-2-(3-methoxy-4-(((((S)-5-oxopyrrolidin-2-yl)methyl)amino)methyl)phenyl)pyridin-4-yl)phenyl)-2-methoxypyridin-3-yl)methyl)amino)methyl)pyrrolidin-2-one], for which the EC50 came out at 15 nM.
To `COc1cc(-c2nccc(-c3cccc(-c4ccc(CNC[C@@H]5CCC(=O)N5)c(OC)n4)c3Cl)c2Cl)cc(F)c1CNC[C@@H]1CCC(=O)N1` [Cmpd 10, (S)-5-((((6-(2-chloro-3-(3-chloro-2-(3-fluoro-5-methoxy-4-(((((S)-5-oxopyrrolidin-2-yl)methyl)amino)methyl)phenyl)pyridin-4-yl)phenyl)-2-methoxypyridin-3-yl)methyl)amino)methyl)pyrrolidin-2-one] belongs 20.9 nM; to `COc1nc(-c2cccc(-c3ccnc(-c4ccc5c(CNC[C@@H]6CCC(=O)N6)cn(C)c5c4)c3Cl)c2Cl)ccc1CNC[C@@H]1CCC(=O)N1` [Cmpd 11, (S)-5-((((6-(2-chloro-3-(3-chloro-2-(1-methyl-3-(((((S)-5-oxopyrrolidin-2-yl)methyl)amino)methyl)-1H-indol-6-yl)pyridin-4-yl)phenyl)-2-methoxypyridin-3-yl)methyl)amino)methyl)pyrrolidin-2-one], 84 nM; to `COc1nc(-c2cccc(-c3ccnc(-c4cnc5c(CNC[C@@H]6CCC(=O)N6)cn(C)c5c4)c3Cl)c2Cl)ccc1CNC[C@@H]1CCC(=O)N1` [Cmpd 13, (S)-5-((((6-(2-chloro-3-(3-chloro-2-(1-methyl-3-(((((S)-5-oxopyrrolidin-2-yl)methyl)amino)methyl)-1H-pyrrolo[3,2-b]pyridin-6-yl)pyridin-4-yl)phenyl)-2-methoxypyridin-3-yl)methyl)amino)methyl)pyrrolidin-2-one], 77.7 nM.
With `COc1nc(-c2cccc(-c3ccnc(-c4ccc5c(c4)N(C)CCN(C[C@@H]4CCC(=O)N4)C5)c3Cl)c2Cl)ccc1CNC[C@@H]1CCC(=O)N1` [Cmpd 19, (S)-5-((((6-(2-chloro-3-(3-chloro-2-(1-methyl-4-(((S)-5-oxopyrrolidin-2-yl)methyl)-2,3,4,5-tetrahydro-1H-benzo[e][1,4]diazepin-8-yl)pyridin-4-yl)phenyl)-2-methoxypyridin-3-yl)methyl)amino)methyl)pyrrolidin-2-one] the figure was 61.4 nM; with `COc1cc(-c2nccc(-c3cccc(-c4cnc(CNC[C@@H]5CCC(=O)N5)c(OC)n4)c3Cl)c2Cl)ccc1CNC[C@@H]1CCC(=O)N1` [Cmpd 20, (S)-5-((((5-(2-chloro-3-(3-chloro-2-(3-methoxy-4-(((((S)-5-oxopyrrolidin-2-yl)methyl)amino)methyl)phenyl)pyridin-4-yl)phenyl)-3-methoxypyrazin-2-yl)methyl)amino)methyl)pyrrolidin-2-one], 22.3 nM; with `COc1cc(-c2nccc(-c3cccc(-c4ccc(CNC[C@@H]5CCC(=O)N5)c(OC)n4)c3Cl)c2Cl)cc2c1CN(C[C@@H](C)O)CC2` [Cmpd 27, (S)-5-((((6-(2-chloro-3-(3-chloro-2-(2-((R)-2-hydroxypropyl)-8-methoxy-1,2,3,4-tetrahydroisoquinolin-6-yl)pyridin-4-yl)phenyl)-2-methoxypyridin-3-yl)methyl)amino)methyl)pyrrolidin-2-one], 25.1 nM.
Consider `COc1cc(-c2nccc(-c3cccc(-c4cc(Cl)c(CNC[C@@H]5CCC(=O)N5)c(OC)n4)c3Cl)c2Cl)cc2c1CN(C[C@@H]1CCC(=O)N1)CC2` [Cmpd 37, (S)-5-((6-(3-chloro-4-(2-chloro-3-(4-chloro-6-methoxy-5-(((((S)-5-oxopyrrolidin-2-yl)methyl)amino)methyl)pyridin-2-yl)phenyl)pyridin-2-yl)-8-methoxy-3,4-dihydroisoquinolin-2(1H)-yl)methyl)pyrrolidin-2-one], for which the midpoint of the response, the EC50, lay at 25.6 nM.
